Test results reported in patent EP0420914B1, “COSMETIC AND SKIN TREATMENT COMPOSITIONS” (PROCYTE CORPORATION, priority 1988, dated 1994).

Legend:
[1] = system: dermis, epidermis and subcutis; test: Histological thickness of dermis, epidermis and subcutis in mice after topical creams; format: in vivo, Swiss-Webster female mice; details: creams on days 0, 1, 3, 4 and 5, placebo had returned to naive control level
Experimental: Skin from 31 Swiss-Webster female mice (average age - 18 months) was evaluated histologically for evidence of changes in skin architecture following several applications of placebo- and peptide-containing cream formulations. Measurements were made of dermal, epidermal and subcutis thickness using an eyepiece micrometer at 100X power.
The mice had hair removed by a close clipping, and were treated on days 0, 1, 3, 4 and 5 with either glycyl-L-histidyl-L-lysine:copper(II), or representative derivatives glycyl-(3-methyl)-L-histidyl-L-lysine: copper(II) and glycyl-L-histidyl-L-lysyl-L-valyl-L-phenylalanyl-L-valine: copper(II), or a placebo cream (n = 5/group). Biopsies were performed on individual animals from the groups on days 6, 10, 12 and 14. In addition, eleven naive mice were biopsied on day 0.

subcutaneous fat layer = test: Formation of the subcutaneous fat layer after a single injection in mice (histology); format: in vivo; details: for subcutaneous fat layer at the area of injection: histology of the injected area
Experimental: A single dose of 50 micrograms of glycyl-L-histidyl-L-lysine n-octyl ester:Cu(II) was infiltrated under the skin in eight mice.
In another series of experiments, mice were injected once with glycyl-L-histidyl-L-lysine octyl ester:copper(II) at a dose of 500 micrograms per mouse.
This increase in subcutaneous fat is shown by taking a biopsy sample at day 21 through the area and sectioning for histology slides. […] The injected area is on the right with the adjacent uninjected area on the left of the photograph.
A group of ten mice were injected once with glycyl-L-histidyl-L-lysine decyl ester:copper(II) at a dose of 500 micrograms per mouse. Microscopic examination provided evidence of increased fat cell layer in the area surrounding the injection site.
A group of ten mice were injected once with glycyl-L-histidyl-L-lysine palmityl ester:copper(II) at a dose of 500 micrograms per mouse. Histological sections through the area of injection were similar to those described in Example VI.

skin = test: Topical ointment on human skin, single-subject case reports; format: in vivo; details: person
Experimental: A person had skin covered by a sprinkled pattern of fine reddish spots of microhemorrhages beneath an irritated skin surface.
A person had skin covered with a scaly eczema-like surface.
A person with hair loss and numerous pigmented spots ("aging spots") was treated for 14 days on the top of their head with an ointment (consisting of 94% Unibase and 6% dimethysulfoxide) containing 4 milligrams of GHL-Cu octyl per gram.
A person had irritated skin with numerous pimples.

pig skin = test: Collagen content and angiogenic activity of pig skin biopsies after topical cream; format: in vivo
Experimental: In a typical experiment, a young pig was treated topically with a cream containing glycyl-(3-methyl)-L-histidyl-L-lysine:copper(II) or a placebo cream once a day for 12 days. Punch biopsies (6 mm dia.) were taken on day 0 and day 12. The biopsies were analyzed for total wet weight, alkaline phosphatase, total protein, and hydroxyproline content. Alkaline phosphatase is an enzyme marker for capillary endothelial cells and is an indicator of new angiogenesis. The hydroxyproline is a component of collagen, and increased hydroxyproline content indicates increased collagen content. The punch biopsies were prepared for biochemical analysis, basically by the method of Counts et al. (D. Counts, P. Knighten and G. Hegreberg, J. Invest. Derm. 69:521-26, 1977).
In a first experiment, an increase in alkaline phosphatase activity and hydroxyproline content was detected on day 12 in the biopsies taken from skin treated with glycyl-(3-methyl)-L-histidyl-L-lysine:copper(II) relative to the placebo-treated area.
The results obtained in a second experiment are graphically illustrated in Figure 4. In this experiment, biopsies were taken from the pig on days 0, 10 and 13 and analyzed for alkaline phosphatase activity.

human epidermis = test: Epidermal cell turnover rate by clearance of dansyl chloride; format: in vivo; details: seven female subjects; daily topical cream, upper inner arm; compared with the corresponding untreated site
Experimental: The rate of cell turnover is determined by the number of days for clearance of dansyl chloride from stained stratum. Seven female subjects were used in the study, with an average age of 50.4 (± 3.8) years. Each subject was treated with 3% dansyl chloride in petrolatum on four sites on the upper inner arms. One site on each arm served as an untreated control and the other site as the treated site. Sites were randomized by computer as to left or right and as to proximal or distal areas of the upper arm. Twenty-four hours after occlusion, the sites were uncovered and photographed under ultraviolet light for fluorescence of the dansyl chloride. This photograph was designated as day 1. Photographs were made over the next four weeks until all subjects had completed the study, as determined by the final disappearance of the dansyl dye. The sites were then treated daily with a topical cream containing a representative composition, glycyl-(3-methyl)-L-histidyl-L-lysine:copper(II) or a control cream. The number of days for the total disappearance of the dansyl dye from the cream-treated sites was compared with the corresponding untreated site.

dermis = test: Ultrasound evaluation of dermal density after topical cream on the forearm; format: in vivo, human; details: 10 women; cream twice daily for three weeks, volar forearm; score 0 no change to 3 marked change; p = 0.029 versus placebo cream
Experimental: The effect of a representative composition, glycyl-(-3-methyl-L-histidyl-L-lysine:copper(II)(active agent), on the epidermis and dermis was evaluated by ultrasound. Ultrasound technique uses high-frequency sound, at 20 megahertz, to produce an echo signal of the skin. This signal is processed to produce a diagrammatic representation of the skin that is related to the structures of the skin by the strength of the reflected signal.
The topical cream containing glycyl-(3-methyl)-L-histidyl-L-lysine:copper(II) or a control cream was applied twice daily for three weeks to the volar surface of the forearms of 10 female subjects with an average age of 31.7 years, using both the right and left sides in a random fashion for each cream. Subjects were evaluated by ultrasound scans at days 1, 7, 14 and 21.
The dermal density after treatment as measured by ultrasound was evaluated on a scoring system whereby no change = 0, a slight change = 1, a moderate change = 2, and a marked change = 3. In 10 women treated with the cream-plus-active-agent, the average density score was 1.7, while the average score of the placebo-cream-only was 0.7. This difference was significant at a probability of p = 0.029.

[2] = injected once, 500 micrograms per mouse
[3] = topical cream once a day for 12 days, 6 mm punch biopsy, day 12

## glycyl-L-histidyl-L-lysyl-L-valyl-L-phenylalanyl-L-valine: copper(II)
[1]
  epidermal thickness by day 14: maintained an increased epidermal thickness

## glycyl-L-histidyl-L-lysine palmityl ester:copper(II)
Subcutaneous fat layer; [2]
  subcutaneous fat layer at the area of injection: increase in the subcutaneous fat layer

## glycyl-L-histidyl-L-lysine n-octyl ester:copper(II)
Subcutaneous fat layer; injected once, 500 micrograms per mouse, biopsy at day 21
  number and size of the fat cells: increase in both the number and size of the fat cells
Subcutaneous fat layer; injected once, 500 micrograms per mouse, biopsy at day 21, versus adjacent uninjected area
  increase in the subcutaneous fat layer in the skin near the injection site (fold): approximately threefold
Subcutaneous fat layer; [2]
  subcutaneous fat layer at the area of injection: significant increase in the thickness of the subcutaneous fat layer
Subcutaneous fat layer; single dose of 50 micrograms infiltrated under the skin, eight mice
  amounts of subcutaneous fat: Increased amounts of subcutaneous fat were observed
skin; treated 14 days on top of head
  softness and thickness of the skin covering the head: noticeably softer to the touch and possessed a greater thickness
skin; treated 14 days on top of head, 4 milligrams per gram in 94% Unibase and 6% dimethysulfoxide, thirty days after start
  number of aging spots: marked reduction in the number of aging spots
skin; treated 14 days, thirty days after start
  size of the remaining aging spots: reduction in the size of the remaining spots

## glycyl-L-histidyl-L-lysine decyl ester:copper(II)
Subcutaneous fat layer; [2]
  subcutaneous fat layer at the area of injection: marked increase in the subcutaneous fat layer

## glycyl-(3-methyl)-L-histidyl-L-lysine:copper(II)
Pig skin; biopsies on days 0, 10 and 13, relative to placebo cream-treated areas
  alkaline phosphatase activity, second experiment (Figure 4): increased alkaline phosphatase
Pig skin; [3]
  Angiogenic Activity (as alkaline phosphatase): 0.013 ± 0.001 inc A405/min/mg
  Collagen Content (as hydroxyproline): 5.8 ± 0.2 µg/biopsy
Human epidermis
  increase of average skin turnover rate: 30.0%
dermis
  average density score (dermal density by ultrasound): 1.7
[1]
  epidermal thickness by day 14: maintained an increased epidermal thickness

## glycyl-L-histidyl-L-lysine: copper(II) [GHL-Cu]
skin; once daily for 9 days, 4 mg GHL-Cu per gram
  reddish spots of microhemorrhages: complete clearing of the reddish spots
